Patent US6914045B2, “Glycopeptide antibiotics” (Wyeth Holdings Corporation, priority 2001, dated 2005)
≈ marks a conversion by molar mass, not a printed value.

Tests used:
Assay in all cases: in vitro antibacterial evaluation, MIC by broth dilution
Format in all cases: cell-based
Streptococcus sp. = details: broth dilution, 18 hours at 35° C.
Method in brief: (§1)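 Following National Committee for Clinical Laboratory Standards recommendations (M7-A2), susceptibility was measured by dilution in Muller-Hinton II […]. Bacteria were seeded at 5×10^5 CFU/mL against compound concentrations from 64 down to 0.06 μg/mL.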

Staphylococcus sp. = details: broth dilution, 18 hours at 35° C.
Method in brief: as §1

Enterococcus sp. = details: broth dilution, 18 hours at 35° C.
Method in brief: as §1

Escherichia coli = details: 18 hours at 35° C.

CC(c1ccccc1)C1NC(=O)CNC(=O)C(CO)NC(=O)C(C(O)C2CNC(=N)N2C2OC(CO)C(O)C(O)C2O)NC(=O)C(C(O)C2CNC(=N)N2)NC(=O)C(Cc2ccc(OC3OC(CO)C(OC4OC(COCC=C(c5ccccc5)c5ccccc5)C(O)C(O)C4O)C(O)C3O)cc2)NC1=O (stereo not shown) [Example 241] was tested, and the “MIC Streptococcus agalactiae (GC 4564)” value (Streptococcus sp.) was under 0.06 µg/mL, the “MIC Streptococcus pneumoniae (ATCC 6301)” value (Streptococcus sp.) was under 0.06 µg/mL and the “MIC Streptococcus pneumoniae (GC 1894)” value (Streptococcus sp.) was under 0.06 µg/mL. The “MIC Streptococcus pneumoniae (GC 4565)” value (Streptococcus sp.) was under 0.06 µg/mL, the “MIC Streptococcus pyogenes (GC 4563)” value (Streptococcus sp.) was under 0.06 µg/mL and the “MIC Streptococcus pneumoniae (ATCC 6301)” value (Streptococcus sp.; inoculum 5×10^5 CFU/mL, strain ATCC 6301) was under 0.06 µg/mL. The “MIC Streptococcus pneumoniae (GC 1894)” value (Streptococcus sp.; inoculum 5×10^5 CFU/mL, strain GC 1894) was under 0.06 µg/mL, the “MIC Streptococcus pyogenes (GC 4563)” value (Streptococcus sp.; inoculum 5×10^5 CFU/mL, strain GC 4563) was under 0.06 µg/mL and the “MIC Streptococcus agalactiae (GC 4564)” value (Streptococcus sp.; inoculum 5×10^5 CFU/mL, strain GC 4564) was under 0.06 µg/mL. For the same compound, the “MIC Streptococcus pneumoniae (GC 4565)” value (Streptococcus sp.; inoculum 5×10^5 CFU/mL, strain GC 4565) was under 0.06 µg/mL, the “MIC Coagulase Negative Staphylococcus (GC 4547)” value (Staphylococcus sp.) was 2 µg/mL (≈ 1.34 µM) and the “MIC Coagulase Negative Staphylococcus (GC 4548)” value (Staphylococcus sp.) was 1 µg/mL (≈ 0.672 µM). The “MIC Coagulase Negative Staphylococcus (GC 4549)” value (Staphylococcus sp.) was 2 µg/mL (≈ 1.34 µM), the “MIC Coagulase Negative Staphylococcus (GC 4551)” value (Staphylococcus sp.) was 4 µg/mL (≈ 2.69 µM) and the “MIC Coagulase Negative Staphylococcus (GC 6257)” value (Staphylococcus sp.) was 2 µg/mL (≈ 1.34 µM). The “MIC Staphylococcus aureus (ATCC 29213)” value (Staphylococcus sp.) was 2 µg/mL (≈ 1.34 µM), the “MIC Staphylococcus aureus (GC 1131)” value (Staphylococcus sp.) was 2 µg/mL (≈ 1.34 µM) and the “MIC Staphylococcus aureus (GC 3051)” value (Staphylococcus sp.) was 2 µg/mL (≈ 1.34 µM). The “MIC Staphylococcus aureus (GC 3053)” value (Staphylococcus sp.) was 2 µg/mL (≈ 1.34 µM), the “MIC Staphylococcus aureus (GC 4541)” value (Staphylococcus sp.) was 2 µg/mL (≈ 1.34 µM) and the “MIC Staphylococcus aureus (GC 4542)” value (Staphylococcus sp.) was 2 µg/mL (≈ 1.34 µM). For the same compound, the “MIC Staphylococcus aureus (GC 4544)” value (Staphylococcus sp.) was 2 µg/mL (≈ 1.34 µM), the “MIC Staphylococcus aureus (GC 4545)” value (Staphylococcus sp.) was 2 µg/mL (≈ 1.34 µM) and the “MIC Staphylococcus aureus-SMITH (GC 4543)” value (Staphylococcus sp.) was 2 µg/mL (≈ 1.34 µM). The “MIC Staphylococcus haemolyticus (GC 4546)” value (Staphylococcus sp.) was 2 µg/mL (≈ 1.34 µM), the “MIC Staphylococcus aureus (ATCC 29213)” value (Staphylococcus sp.; strain ATCC 29213) was 2 µg/mL (≈ 1.34 µM) and the “MIC Staphylococcus aureus (GC 1131)” value (Staphylococcus sp.; strain GC 1131) was 2 µg/mL (≈ 1.34 µM). The “MIC Staphylococcus aureus (GC 3051)” value (Staphylococcus sp.; strain GC 3051) was 2 µg/mL (≈ 1.34 µM), the “MIC Staphylococcus aureus (GC 3053)” value (Staphylococcus sp.; strain GC 3053) was 2 µg/mL (≈ 1.34 µM) and the “MIC Staphylococcus aureus (GC 4541)” value (Staphylococcus sp.; strain GC 4541) was 2 µg/mL (≈ 1.34 µM). The “MIC Staphylococcus aureus (GC 4542)” value (Staphylococcus sp.; strain GC 4542) was 2 µg/mL (≈ 1.34 µM), the “MIC Staphylococcus aureus-SMITH (GC 4543)” value (Staphylococcus sp.; strain GC 4543) was 2 µg/mL (≈ 1.34 µM) and the “MIC Staphylococcus aureus (GC 4544)” value (Staphylococcus sp.; strain GC 4544) was 2 µg/mL (≈ 1.34 µM). For the same compound, the “MIC Staphylococcus aureus (GC 4545)” value (Staphylococcus sp.; strain GC 4545) was 2 µg/mL (≈ 1.34 µM), the “MIC Staphylococcus haemolyticus (GC 4546)” value (Staphylococcus sp.; strain GC 4546) was 2 µg/mL (≈ 1.34 µM) and the “MIC Coagulase Negative Staphylococcus (GC 4547)” value (Staphylococcus sp.; strain GC 4547) was 2 µg/mL (≈ 1.34 µM). For the same compound, the “MIC Coagulase Negative Staphylococcus (GC 4548)” value (Staphylococcus sp.; strain GC 4548) was 1 µg/mL (≈ 0.672 µM), the “MIC Coagulase Negative Staphylococcus (GC 4549)” value (Staphylococcus sp.; strain GC 4549) was 2 µg/mL (≈ 1.34 µM) and the “MIC Coagulase Negative Staphylococcus (GC 4551)” value (Staphylococcus sp.; strain GC 4551) was 4 µg/mL (≈ 2.69 µM). For the same compound, the “MIC Coagulase Negative Staphylococcus (GC 6257)” value (Staphylococcus sp.; strain GC 6257) was 2 µg/mL (≈ 1.34 µM), the “MIC Enterococcus avium (GC 4558)” value (Enterococcus sp.) was 4 µg/mL (≈ 2.69 µM) and the “MIC Enterococcus faecalis (ATCC 29212)” value (Enterococcus sp.) was 4 µg/mL (≈ 2.69 µM). The “MIC Enterococcus faecalis (GC 2242)” value (Enterococcus sp.) was 4 µg/mL (≈ 2.69 µM), the “MIC Enterococcus faecalis (GC 2691)” value (Enterococcus sp.) was 4 µg/mL (≈ 2.69 µM) and the “MIC Enterococcus faecalis (GC 3059)” value (Enterococcus sp.) was 2 µg/mL (≈ 1.34 µM). The “MIC Enterococcus faecalis (GC 4552)” value (Enterococcus sp.) was 4 µg/mL (≈ 2.69 µM), the “MIC Enterococcus faecalis (GC 4553)” value (Enterococcus sp.) was 4 µg/mL (≈ 2.69 µM) and the “MIC Enterococcus faecalis (GC 4554)” value (Enterococcus sp.) was 4 µg/mL (≈ 2.69 µM). The “MIC Enterococcus faecalis (GC 6189)” value (Enterococcus sp.) was 2 µg/mL (≈ 1.34 µM), the “MIC Enterococcus faecium (GC 2243)” value (Enterococcus sp.) was 4 µg/mL (≈ 2.69 µM) and the “MIC Enterococcus faecium (GC 4556)” value (Enterococcus sp.) was 4 µg/mL (≈ 2.69 µM). The “MIC Enterococcus faecium (GC 4557)” value (Enterococcus sp.) was 2 µg/mL (≈ 1.34 µM), the “MIC Enterococcus faecalis (ATCC 29212)” value (Enterococcus sp.; strain ATCC 29212) was 4 µg/mL (≈ 2.69 µM) and the “MIC Enterococcus faecium (GC 2243)” value (Enterococcus sp.; strain GC 2243) was 4 µg/mL (≈ 2.69 µM). For the same compound, the “MIC Enterococcus faecalis (GC 4552)” value (Enterococcus sp.; strain GC 4552) was 4 µg/mL (≈ 2.69 µM), the “MIC Enterococcus faecalis (GC 4553)” value (Enterococcus sp.; strain GC 4553) was 4 µg/mL (≈ 2.69 µM) and the “MIC Enterococcus faecalis (GC 4554)” value (Enterococcus sp.; strain GC 4554) was 4 µg/mL (≈ 2.69 µM). For the same compound, the “MIC Enterococcus faecium (GC 4556)” value (Enterococcus sp.; strain GC 4556) was 4 µg/mL (≈ 2.69 µM), the “MIC Enterococcus faecium (GC 4557)” value (Enterococcus sp.; strain GC 4557) was 2 µg/mL (≈ 1.34 µM) and the “MIC Enterococcus avium (GC 4558)” value (Enterococcus sp.; strain GC 4558) was 4 µg/mL (≈ 2.69 µM). The “MIC Enterococcus faecalis (GC 6189)” value (Enterococcus sp.; strain GC 6189) was 2 µg/mL (≈ 1.34 µM), the “MIC Enterococcus faecalis (GC 2242)” value (Enterococcus sp.; inoculum 5×10^5 CFU/mL, strain GC 2242) was 4 µg/mL (≈ 2.69 µM) and the “MIC Enterococcus faecalis (GC 2691)” value (Enterococcus sp.; inoculum 5×10^5 CFU/mL, strain GC 2691) was 4 µg/mL (≈ 2.69 µM). For the same compound, the “MIC Enterococcus faecalis (GC 3059)” value (Enterococcus sp.; inoculum 5×10^5 CFU/mL, strain GC 3059) was 2 µg/mL (≈ 1.34 µM), the “MIC Escherichia coli (ATCC 25922)” value (Escherichia coli) was over 64 µg/mL and the “MIC Escherichia coli (GC 4559)” value (Escherichia coli) was over 64 µg/mL. The “MIC Escherichia coli (GC 4560)” value (Escherichia coli) was 2 µg/mL (≈ 1.34 µM).
